# Data as given in paper PMC4519322 (PLoS Pathogens, 2015).
# Columns and labels:
# Y289H rWSN = assay type: cell-based, influenza A virus; details: read-out: IC50 (μM) Y289H rWSM (H1N1)
# A/WSN/1933 (H1N1) = assay type: cell-based, influenza A virus
compound,measurement,setting,value
"Cc1onc(-c2ccccc2)c1C(=O)N1CCN(c2ccc([N+](=O)[O-])cc2Cl)CC1 [Nucleozin, nucleozin, reference compound]",IC50,Y289H rWSN,> 100 µM
same,sensitivity of RK424 3rd passage virus,A/WSN/1933 (H1N1),susceptible
same,sensitivity of nucleozin 4th passage virus,A/WSN/1933 (H1N1),exhibited resistance
O=C(O)c1cc(-c2ccc(-c3ccccc3)cc2)nc2ccccc12 [RK424],IC50,Y289H rWSN,0.3 ± 0.1 µM
same,sensitivity of RK424 3rd passage virus,A/WSN/1933 (H1N1),susceptible
same,sensitivity of nucleozin 4th passage virus,A/WSN/1933 (H1N1),but not RK424
